Holding throughout (type): biochemical
Test [1] concerns the target adenosine A2B receptor (Homo sapiens (Human), UniProt P29275). Description: Adenosine receptor activity assay (Table 1), A2B activity. To be noted: for Ratio: A2A activity to the A2B activity, A2A/A2B; for IC50: read-out: Ave A2B cAMP IC50.
Test [2] deals with adenosine A2A receptor (Homo sapiens (Human), UniProt P29274). Briefly: Adenosine receptor activity assay (Table 1), A2A activity. The conditions noted are these: read-out: Ave A2A cAMP IC50.
Test [3] has as its target adenosine A1 receptor (Homo sapiens (Human), UniProt P30542). Description: Adenosine receptor activity assay (Table 1), A1 cAMP. The procedure: (§1) Table 1. Compounds (e.g., Adenosine Receptor modulators) and activity assay results. The legend is as follows: A=<10 nM; B=10-50 nM; C=50-100 nM; D=100-500; and E=>500 nM. The ratio corresponds to the A2A activity to the A2B activity; or A2A/A2B.

Test [4] deals with adenosine A3 receptor (Homo sapiens (Human), UniProt P0DMS8). Description: Adenosine receptor activity assay (Table 1), A3 cAMP. The protocol:
as §1

Sequence of adenosine A2B receptor (P29275 whole entry): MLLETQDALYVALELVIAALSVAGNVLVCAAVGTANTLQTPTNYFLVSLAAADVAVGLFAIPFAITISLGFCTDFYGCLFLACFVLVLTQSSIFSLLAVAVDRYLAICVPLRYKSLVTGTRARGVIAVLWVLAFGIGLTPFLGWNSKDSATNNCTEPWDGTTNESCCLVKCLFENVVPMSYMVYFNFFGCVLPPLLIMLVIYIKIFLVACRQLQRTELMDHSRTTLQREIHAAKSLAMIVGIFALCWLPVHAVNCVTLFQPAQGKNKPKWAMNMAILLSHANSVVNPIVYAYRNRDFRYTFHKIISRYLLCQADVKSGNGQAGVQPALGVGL
Sequence of adenosine A1 receptor (P30542 whole entry): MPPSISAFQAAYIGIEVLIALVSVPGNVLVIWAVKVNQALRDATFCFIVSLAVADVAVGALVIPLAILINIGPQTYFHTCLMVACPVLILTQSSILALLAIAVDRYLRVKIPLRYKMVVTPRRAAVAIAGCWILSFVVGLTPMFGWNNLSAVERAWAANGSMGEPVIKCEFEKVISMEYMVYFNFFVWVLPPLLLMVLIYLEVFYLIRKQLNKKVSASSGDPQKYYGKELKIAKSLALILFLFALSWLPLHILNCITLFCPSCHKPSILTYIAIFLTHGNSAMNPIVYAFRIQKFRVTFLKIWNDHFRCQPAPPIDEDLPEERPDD
Sequence of adenosine A3 receptor (P0DMS8 whole entry): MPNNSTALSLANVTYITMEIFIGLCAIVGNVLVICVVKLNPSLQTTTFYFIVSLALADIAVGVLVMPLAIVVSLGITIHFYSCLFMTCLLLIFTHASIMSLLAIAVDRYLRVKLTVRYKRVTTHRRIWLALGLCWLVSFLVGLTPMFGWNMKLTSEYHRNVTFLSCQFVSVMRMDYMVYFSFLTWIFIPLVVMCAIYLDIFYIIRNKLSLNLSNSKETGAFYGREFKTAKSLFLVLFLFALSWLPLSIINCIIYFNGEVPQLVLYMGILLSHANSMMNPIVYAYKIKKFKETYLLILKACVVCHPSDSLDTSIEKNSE
Sequence of adenosine A2A receptor (P29274 whole entry): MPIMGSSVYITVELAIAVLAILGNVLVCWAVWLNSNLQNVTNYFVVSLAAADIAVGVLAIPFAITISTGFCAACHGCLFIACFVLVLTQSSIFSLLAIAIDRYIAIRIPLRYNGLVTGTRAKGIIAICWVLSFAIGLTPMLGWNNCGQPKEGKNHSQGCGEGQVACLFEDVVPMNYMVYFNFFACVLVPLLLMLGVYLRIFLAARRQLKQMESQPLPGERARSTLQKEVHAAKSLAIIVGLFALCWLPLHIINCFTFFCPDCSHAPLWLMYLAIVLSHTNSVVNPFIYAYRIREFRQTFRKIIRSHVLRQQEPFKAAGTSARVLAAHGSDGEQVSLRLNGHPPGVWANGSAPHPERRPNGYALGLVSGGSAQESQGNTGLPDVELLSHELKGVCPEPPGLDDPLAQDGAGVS

In the case of `Cc1cc2nc(N[C@@H](C)c3cncc(F)c3)nc(C(=O)N3CC(NC(=O)C4CCOC4)C3)c2s1` (stereo partly drawn) [Example Z523, N-(1-(2-(((S)-1-(5-Fluoropyridin-3-yl)ethyl)amino)-6-methylthieno[3,2-d]pyrimidine-4-carbonyl)azetidin-3-yl)tetrahydrofuran-3-carboxamide], in test [1], the Ratio is 1.40. The IC50 is below 10 nM in test [1], 10 to 50 nM in test [2], above 500 nM in test [3] and 100 to 500 nM in test [4].

`Cc1cc2nc(N[C@@H](C)c3cncc(F)c3)nc(C(=O)NCCC3CCNCC3)c2s1` [Example Z496, (S)-2-((1-(5-Fluoropyridin-3-yl)ethyl)amino)-6-methyl-N-(2-(piperidin-4-yl)ethyl)thieno[3,2-d]pyrimidine-4-carboxamide]: in test [1], the Ratio was determined as 524.78. For the same compound, the concentration for half-maximal inhibition (IC50) in test [1] is 10 to 50 nM; in test [2], above 500 nM; in test [3], above 500 nM; in test [4] it was above 500 nM.

For the compound `Cc1cc2nc(N[C@@H](C)c3cncc(F)c3)nc(C(=O)N3CC[C@@H]3C)c2s1` [Example Z596], in test [1], the Ratio was determined as 10.34. Besides, the IC50 in test [1] was below 10 nM; in test [2], 10 to 50 nM; in test [3], below 10 nM; in test [4], below 10 nM.

`Cc1cc2nc(N[C@@H](C)c3cncc(F)c3)nc(C(=O)N3CC(CN)C3)c2s1` [Example Z478, (S)-(3-(Aminomethyl)azetidin-1-yl)(2-((1-(5-fluoropyridin-3-yl)ethyl)amino)-6-methylthieno[3,2-d]pyrimidin-4-yl)methanone]: the Ratio in test [1] was found to be 167.42. The IC50 was 10 to 50 nM in test [1], above 500 nM in test [2], above 500 nM in test [3] and above 500 nM in test [4].

On to `Cc1cc2nc(N[C@@H](C)c3cncc(F)c3)nc(C(=O)N3CC(CS(C)(=O)=O)C3)c2s1` [Example Z575, (S)-(2-((1-(5-Fluoropyridin-3-yl)ethyl)amino)-6-methylthieno[3,2-d]pyrimidin-4-yl)(3-((methylsulfonyl)methyl)azetidin-1-yl)methanone], for which the Ratio in test [1] was 75.64. Further, the IC50 is below 10 nM in test [1], above 500 nM in test [2], above 500 nM in test [3] and above 500 nM in test [4].

With `Cc1cc2nc(N[C@@H](C)c3cncc(F)c3)nc(C(=O)N3CC[C@H](CN)C3)c2s1` [Example Z554, ((R)-3-(Aminomethyl)pyrrolidin-1-yl)(2-(((S)-1-(5-fluoropyridin-3-yl)ethyl)amino)-6-methylthieno[3,2-d]pyrimidin-4-yl)methanone], the Ratio in test [1] came out at 547.59. The IC50 in test [1] is below 10 nM; in test [2], above 500 nM; in test [3] it was above 500 nM; in test [4], above 500 nM.

For the compound `CCNC(=O)C1CCN(C(=O)c2nc(N[C@@H](C)c3cncc(F)c3)nc3ccsc23)C1` (stereo partly drawn) [Example Z520, N-Ethyl-1-(2-(((S)-1-(5-fluoropyridin-3-yl)ethyl)amino)thieno[3,2-d]pyrimidine-4-carbonyl)pyrrolidine-3-carboxamide], the Ratio in test [1] is 27.57. Besides, the IC50 is below 10 nM in test [1], 100 to 500 nM in test [2], above 500 nM in test [3] and above 500 nM in test [4].

`CC(C)(C)C(=O)N[C@H]1CCN(C(=O)c2nc(NCc3cncc(F)c3)nc3ccsc23)C1` [Example Z526, (S)—N-(1-(2-(((5-Fluoropyridin-3-yl)methyl)amino)thieno[3,2-d]pyrimidine-4-carbonyl)pyrrolidin-3-yl)pivalamide]: the Ratio in test [1] is listed as 4.26. Besides, the IC50 was 10 to 50 nM in test [1], 50 to 100 nM in test [2], above 500 nM in test [3] and above 500 nM in test [4].

Regarding `Cc1cc2nc(N[C@@H](C)c3cncc(F)c3)nc(C(=O)NCCC3CN(C(=O)OC(C)(C)C)C3)c2s1` [Example Z485, tert-Butyl (S)-3-(2-(2-((1-(5-fluoropyridin-3-yl)ethyl)amino)-6-methylthieno[3,2-d]pyrimidine-4-carboxamido)ethyl)azetidine-1-carboxylate], the Ratio in test [1] turned out to be 8.16. Further, the IC50 was 10 to 50 nM in test [1], 100 to 500 nM in test [2], 100 to 500 nM in test [3] and above 500 nM in test [4].

In the case of `Cc1cc2nc(N[C@@H](C)c3cncc(F)c3)nc(C(=O)N3CC[C@H]3C)c2s1` [Example Z595, (2-(((S)-1-(5-Fluoropyridin-3-yl)ethyl)amino)-6-methylthieno[3,2-d]pyrimidin-4-yl)((R)-2-methylazetidin-1-yl)methanone], the Ratio in test [1] amounted to 9.45. The IC50 in test [1] is below 10 nM; in test [2], 10 to 50 nM; in test [3], below 10 nM; in test [4], below 10 nM.

With `COc1ccc(CNC(=O)c2nc(N[C@@H](C)c3ccccn3)nc3cc(C)sc23)cc1` [Example Z477, (S)—N-(4-Methoxybenzyl)-6-methyl-2-((1-(pyridin-2-yl)ethyl)amino)thieno[3,2-d]pyrimidine-4-carboxamide], the Ratio in test [1] worked out at 9.73. The IC50 in test [1] was in the range of 10 to 50 nM; in test [2], 100 to 500 nM; in test [3], 50 to 100 nM; in test [4] it was 50 to 100 nM.

For the compound `COc1cccc(CCNC(=O)c2nc(N[C@@H](C)c3cncc(F)c3)nc3ccsc23)n1` [Example Z411, (S)-2-((1-(5-Fluoropyridin-3-yl)ethyl)amino)-N-(2-(6-methoxypyridin-2-yl)ethyl)thieno[3,2-d]pyrimidine-4-carboxamide], the Ratio in test [1] is reported as 19.23. Also, the IC50 is below 10 nM in test [1], 100 to 500 nM in test [2], above 500 nM in test [3] and above 500 nM in test [4].

In the case of `Cc1cc2nc(N[C@@H](C)c3cncc(F)c3)nc(C(=O)N3CC(NC(=O)[C@@H]4CCOC4)C3)c2s1` [Example Z598, (R)—N-(1-(2-(((S)-1-(5-Fluoropyridin-3-yl)ethyl)amino)-6-methylthieno[3,2-d]pyrimidine-4-carbonyl)azetidin-3-yl)tetrahydrofuran-3-carboxamide], the Ratio in test [1] came to 0.68. In addition, the IC50 in test [1] is 10 to 50 nM; in test [2] it was 10 to 50 nM; in test [3], above 500 nM; in test [4], 100 to 500 nM.

As to `Cc1cc2nc(N[C@@H](C)c3ccccn3)nc(C(N)=O)c2s1` [Example Z480, (S)-6-Methyl-2-((1-(pyridin-2-yl)ethyl)amino)thieno[3,2-d]pyrimidine-4-carboxamide], the Ratio in test [1] is recorded as 47.68. Further, the IC50 was 10 to 50 nM in test [1], above 500 nM in test [2], above 500 nM in test [3] and above 500 nM in test [4].

Turning to `Cc1cc2nc(N[C@@H](C)c3cncc(F)c3)nc(C(=O)N3CC(N(C)C(=O)CC(C)(C)C)C3)c2s1` [Example Z508, (S)—N-(1-(2-((1-(5-Fluoropyridin-3-yl)ethyl)amino)-6-methylthieno[3,2-d]pyrimidine-4-carbonyl)azetidin-3-yl)-N,3,3-trimethylbutanamide], the Ratio in test [1] was determined as 1.06. The IC50 in test [1] was 10 to 50 nM; in test [2] it was 10 to 50 nM; in test [3], above 500 nM; in test [4], above 500 nM.

`C[C@H](Nc1nc(C(=O)N[C@@H]2CC[C@H](O)C2)c2sccc2n1)c1cncc(F)c1` [Example Z402, 2-(((S)-1-(5-Fluoropyridin-3-yl)ethyl)amino)-N-((1R,3S)-3-hydroxycyclopentyl)thieno[3,2-d]pyrimidine-4-carboxamide]: the Ratio in test [1] is 38.37. In addition, the IC50 in test [1] was below 10 nM; in test [2], 50 to 100 nM; in test [3], 100 to 500 nM; in test [4] it was 50 to 100 nM.

As for `Cc1cc2nc(N[C@@H](C)c3cncc(F)c3)nc(C(=O)N3CC(NC(=O)c4ccoc4)C3)c2s1` [Example Z546, (S)—N-(1-(2-((1-(5-Fluoropyridin-3-yl)ethyl)amino)-6-methylthieno[3,2-d]pyrimidine-4-carbonyl)azetidin-3-yl)furan-3-carboxamide], the Ratio in test [1] is recorded as 3.52. Further, the IC50 in test [1] was below 10 nM; in test [2] it was 10 to 50 nM; in test [3], above 500 nM; in test [4], above 500 nM.

With `C[C@H](Nc1nc(C(=O)N2CCC(C(=O)NOC(C)(C)C)C2)c2sccc2n1)c1cncc(F)c1` (stereo partly drawn) [Example Z549, N-(tert-Butoxy)-1-(2-(((S)-1-(5-fluoropyridin-3-yl)ethyl)amino)thieno[3,2-d]pyrimidine-4-carbonyl)pyrrolidine-3-carboxamide], the Ratio in test [1] was 0.63. In addition, the concentration for half-maximal inhibition (IC50) was 10 to 50 nM in test [1], below 10 nM in test [2], above 500 nM in test [3] and above 500 nM in test [4].

Consider `C[C@H](Nc1nc(C(=O)N2CC(CNC(=O)N(C)C)C2)c2sccc2n1)c1cncc(F)c1` [Example Z577, (S)-3-((1-(2-((1-(5-Fluoropyridin-3-yl)ethyl)amino)thieno[3,2-d]pyrimidine-4-carbonyl)azetidin-3-yl)methyl)-1,1-dimethylurea], for which the Ratio in test [1] is 6.37. Further, the IC50 in test [1] is 10 to 50 nM; in test [2], 50 to 100 nM; in test [3] it was above 500 nM; in test [4], above 500 nM.

As to `CC(=O)N[C@@H]1CCN(C(=O)c2nc(N[C@@H](C)c3cncc(F)c3)nc3cc(C)sc23)C1` [Example Z532, N—((R)-1-(2-(((S)-1-(5-Fluoropyridin-3-yl)ethyl)amino)-6-methylthieno[3,2-d]pyrimidine-4-carbonyl)pyrrolidin-3-yl)acetamide], the Ratio in test [1] is 149.69. Moreover, the IC50 was 10 to 50 nM in test [1], above 500 nM in test [2], above 500 nM in test [3] and above 500 nM in test [4].

What is called IC50 is the concentration at which inhibition is half-maximal.

(Values after patent US11254686B1 (Corvus Pharmaceuticals, Inc., priority 2017, dated 2022).)
